Measured values reported in ChEMBL document CHEMBL1201862, “PubChem BioAssay data set” (2004).
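Interpolation was linear, between the two tested concentrations surrounding the appropriate level; five concentrations were tested over 48 hours in 96-well plates. GI50 marks 50% less growth.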 Calls of active or inactive are those of the source. No stated cut-off is given here; in the data, active = GI50 up to about 1.1 µM and inactive = higher.

Columns and labels:
Test in all cases: inhibition of tumour cell growth, NCI panel, 48 h
M14 = tested on: M14
NCI-H460 = tested on: NCI-H460
T47D = tested on: T47D
PC-3 = tested on: PC-3
K562 = tested on: K562
COLO 205 = tested on: COLO 205
NCI-H23 = tested on: NCI-H23
HOP-62 = tested on: HOP-62
MDA-MB-231 = tested on: MDA-MB-231
HCT-15 = tested on: HCT-15
SNB-19 = tested on: SNB-19
TK-10 = tested on: TK-10
UACC-62 = tested on: UACC-62
A498 = tested on: A498
SK-OV-3 = tested on: SK-OV-3
EKVX = tested on: EKVX
SW-620 = tested on: SW-620
MDA-MB-435 = tested on: MDA-MB-435
U-251 = tested on: U-251
OVCAR-3 = tested on: OVCAR-3

Row | SMILES | GI50 (M14) | GI50 (NCI-H460) | GI50 (T47D) | GI50 (PC-3) | GI50 (K562) | GI50 (COLO 205) | GI50 (NCI-H23) | GI50 (HOP-62) | GI50 (MDA-MB-231) | GI50 (HCT-15) | GI50 (SNB-19) | GI50 (TK-10) | GI50 (UACC-62) | GI50 (A498) | GI50 (SK-OV-3) | GI50 (EKVX) | GI50 (SW-620) | GI50 (MDA-MB-435) | GI50 (U-251) | GI50 (OVCAR-3)
1 | C[C@@H](CC(O)C(O)C(C)(C)O)C1CCC23CC12CCC1[C@@]2(C)CCC(=O)C(C)(C)C2CC(OC2OC(CO)C(O)C(O)C2O)[C@]13C (some centres undefined) | > 10 µM (inactive) | > 10 µM (inactive) | > 10 µM (inactive) | > 10 µM (inactive) | > 10 µM (inactive) | > 10 µM (inactive) | > 10 µM (inactive) | > 10 µM (inactive) | > 10 µM (inactive) | > 10 µM | > 10 µM (inactive) | > 10 µM (inactive) | > 10 µM (inactive) | > 10 µM (inactive) | > 10 µM (inactive) | > 10 µM (inactive) | > 10 µM (inactive) | > 10 µM (inactive) | > 10 µM (inactive) | > 10 µM (inactive)
2 | CC(=O)c1c(SCCN2CCCC2)n(-c2ccccc2)c(=S)n(-c2ccccc2)c1=O | 2.39 µM (inactive) | 17.9 µM (inactive) | 2.11 µM (inactive) | 3.56 µM (inactive) | 2.72 µM (inactive) | 1.76 µM (inactive) | 17.4 µM (inactive) | 22.4 µM (inactive) | 8.83 µM (inactive) | 4.01 µM | 28.4 µM (inactive) | 3.64 µM (inactive) | 6.93 µM (inactive) | 14.3 µM (inactive) | 45.3 µM (inactive) | 17 µM (inactive) | 2.34 µM (inactive) | 5.9 µM (inactive) | 21.1 µM (inactive) | 2.5 µM (inactive)
3 | COC(=O)[C@@]12C(=O)C(C)C(=O)[C@]1(C)C(C)=C[C@H]1[C@]3(C=O)CC[C@H](OC(C)=O)C(C)(C)[C@H]3CC[C@@]12C (some centres undefined) | > 100 µM (inactive) | > 100 µM (inactive) | > 100 µM (inactive) | > 100 µM (inactive) | 38.6 µM (inactive) | > 100 µM (inactive) | > 100 µM (inactive) | > 100 µM (inactive) | > 100 µM (inactive) | > 100 µM | > 100 µM (inactive) | > 100 µM (inactive) | > 100 µM (inactive) | > 100 µM (inactive) | > 100 µM (inactive) | > 100 µM (inactive) | > 100 µM (inactive) | 97.3 µM (inactive) | > 100 µM (inactive) | > 100 µM (inactive)
4 | O=C(CC(C(=O)c1cccs1)c1ccsc1)c1cccs1 (centres undefined) | > 10 µM (inactive) | 43.9 µM (inactive) | 26.3 µM (inactive) | 45.2 µM (inactive) | 37.8 µM (inactive) | 75.2 µM (inactive) | > 100 µM (inactive) | > 100 µM (inactive) | > 100 µM (inactive) | 71.3 µM | > 100 µM (inactive) | > 100 µM (inactive) | 62.1 µM (inactive) | 38.6 µM (inactive) | 61.9 µM (inactive) | 28.8 µM (inactive) | 81.7 µM (inactive) | 29.1 µM (inactive) | > 100 µM (inactive) | 45 µM (inactive)
5 | O=C(O)c1ccccc1/C=N\N=C1NCCN1 | > 100 µM (inactive) | > 100 µM (inactive) | > 100 µM (inactive) | > 100 µM (inactive) | > 100 µM (inactive) | > 100 µM (inactive) | > 100 µM (inactive) | > 100 µM (inactive) | > 100 µM (inactive) | > 100 µM | > 100 µM (inactive) | > 100 µM (inactive) | > 100 µM (inactive) | > 100 µM (inactive) | > 100 µM (inactive) | > 100 µM (inactive) | > 100 µM (inactive) | > 100 µM (inactive) | > 100 µM (inactive) | > 100 µM (inactive)
6 | Cc1ccc2c(c1)C(=O)c1[nH]c3ccc(F)cc3c1CO2 | 18.8 µM (inactive) | 33.9 µM (inactive) | 21.3 µM (inactive) | 84.9 µM (inactive) | 29 µM (inactive) | > 100 µM (inactive) | 25.2 µM (inactive) | 10.1 µM (inactive) | > 100 µM (inactive) | > 100 µM | 14.3 µM (inactive) | 31.8 µM (inactive) | 24.4 µM (inactive) | 79.4 µM (inactive) | 15.1 µM (inactive) | 67.6 µM (inactive) | 24.4 µM (inactive) | 58.9 µM (inactive) | 18.5 µM (inactive) | 36.6 µM (inactive)
7 | CCCCC(=O)Nc1ccc2c(C)cc(-c3ccc(-c4cc(-c5ccc(C)cc5)cc(-c5ccc(-c6cc(C)c7ccc(NC(=O)CCCC)nc7n6)cc5)n4)cc3)nc2n1 | > 100 µM (inactive) | > 100 µM (inactive) | > 100 µM (inactive) | > 100 µM (inactive) | > 100 µM (inactive) | > 100 µM (inactive) | > 100 µM (inactive) | > 100 µM (inactive) | > 100 µM (inactive) | > 100 µM | > 100 µM (inactive) | > 100 µM (inactive) | > 100 µM (inactive) | > 100 µM (inactive) | > 100 µM (inactive) | > 100 µM (inactive) |  | > 100 µM (inactive) | > 100 µM (inactive) | > 100 µM (inactive)
